This is an account of results in patent publication US9498480B2 (Bayer Intellectual Property GmbH, priority 2012, dated 2016).

The assay relates to recombinant guanylate cyclase reporter cell line. Nature of the assay: Effect on a recombinant guanylate cyclase reporter cell line. In kind it is cell-based. To be noted: representative values, read-out: MEC (minimum effective concentration). Here is the method: B-2. Effect on a Recombinant Guanylate Cyclase Reporter Cell Line
The cellular activity of the compounds according to the invention is determined using a recombinant guanylate cyclase reporter cell line, as described in F. Wunder et al., Anal. Biochem. 339, 104-112 (2005).
For the compound `Cc1n[nH]c2nc(-c3nn(Cc4ncccc4F)c4ncc(F)cc34)nc(N)c12` [Example 1, 6-{5-Fluoro-1-[(3-fluoropyridin-2-yl)methyl]-1H-pyrazolo[3,4-b]pyridin-3-yl}-3-methyl-1H-pyrazolo[3,4-d]pyrimidine-4-amine], the minimal effective concentration turned out to be 0.3 µM.
For `CCN(CC)c1n[nH]c2nc(-c3nn(Cc4ncccc4F)c4ncc(F)cc34)nc(N)c12` [Example 2, N^3,N^3-Diethyl-6-{5-fluoro-1-[(3-fluoropyridin-2-yl)methyl]-1H-pyrazolo[3,4-b]pyridin-3-yl}-1H-pyrazolo[3,4-d]pyrimidine-3,4-diamine], the minimal effective concentration was determined as 0.1 µM.
With `Nc1nc(-c2nn(Cc3ncccc3F)c3ncc(F)cc23)nc2ncccc12` [Example 3, 2-{5-Fluoro-1-[(3-fluoropyridin-2-yl)methyl]-1H-pyrazolo[3,4-b]pyridin-3-yl}pyrido[2,3-d]pyrimidine-4-amine] the figure was 10 µM; with `COc1n[nH]c2nc(-c3nn(Cc4ncccc4F)c4ncc(F)cc34)nc(N)c12` [Example 4, 6-{5-Fluoro-1-[(3-fluoropyridin-2-yl)methyl]-1H-pyrazolo[3,4-b]pyridin-3-yl}-3-methoxy-1H-pyrazolo[3,4-d]pyrimidine-4-amine], 0.3 µM; with `O=c1[nH]c2nc(-c3nn(Cc4ccccc4F)c4ncc(F)cc34)nc(NCC3CC3)c2n1CC(F)(F)F` [Example 5, 6-[(Cyclopropylmethyl)amino]-2-[5-fluoro-1-(2-fluorobenzyl)-1H-pyrazolo[3,4-b]pyridin-3-yl]-7-(2,2,2-trifluoroethyl)-7,9-dihydro-8H-purin-8-one], 0.3 µM.
With `Cc1n[nH]c2nc(-c3nc(Cc4ccccc4F)n4ncccc34)nc(N)c12` [Example 7, 6-[7-(2-Fluorobenzyl)imidazo[1,5-b]pyridazin-5-yl]-3-methyl-1H-pyrazolo[3,4-d]pyrimidine-4-amine] the figure was 0.01 µM; with `Cc1n[nH]c2nc(-c3nn(CCC(F)(F)C(F)(F)F)c4ncc(F)cc34)nc(N)c12` [Example 8, 6-[5-Fluoro-1-(3,3,4,4,4-pentafluorobutyl)-1H-pyrazolo[3,4-b]pyridin-3-yl]-3-methyl-1H-pyrazolo[3,4-d]pyrimidine-4-amine], 0.1 µM; with `CCN(CC)c1n[nH]c2nc(-c3nn(CCC(F)(F)C(F)(F)F)c4ncc(F)cc34)nc(N)c12` [Example 9], 0.03 µM.
Take `Nc1nc(-c2nn(CCC(F)(F)C(F)(F)F)c3ncc(F)cc23)nc2ncccc12` [Example 10, 2-[5-Fluoro-1-(3,3,4,4,4-pentafluorobutyl)-1H-pyrazolo[3,4-b]pyridin-3-yl]pyrido[2,3-d]pyrimidine-4-amine]: the minimal effective concentration was determined as 0.3 µM.
